± gives the expanded uncertainty stated by the source.
How the values were obtained:
[1] = Crystal; DTA
[2] = Molar enthalpy of transition or fusion; settings: Crystal; DSC

- Normal melting temperature [1]: 173.80 ± 1.1 °C
- Molar enthalpy of transition or fusion [2]: 5.93 ± 0.239 kcal/mol
Structure (SMILES): COc1cc(Cl)nc(N)n1 [2-amino-4-chloro-6-methoxypyrimidine]

Source: the NIST ThermoML archive (doi:10.1016/j.jct.2016.10.020)
